Source: patent US8338423B2, “Compositions for the treatment of hyperphenylalaninemia” (Universidad de Zaragoza, priority 2007, dated 2012)

Target: T1, wt-PAH (Homo sapiens, UniProt P00439)
T1 construct: made in house; host or cells: E. coli
T1 sequence (P00439 1-452): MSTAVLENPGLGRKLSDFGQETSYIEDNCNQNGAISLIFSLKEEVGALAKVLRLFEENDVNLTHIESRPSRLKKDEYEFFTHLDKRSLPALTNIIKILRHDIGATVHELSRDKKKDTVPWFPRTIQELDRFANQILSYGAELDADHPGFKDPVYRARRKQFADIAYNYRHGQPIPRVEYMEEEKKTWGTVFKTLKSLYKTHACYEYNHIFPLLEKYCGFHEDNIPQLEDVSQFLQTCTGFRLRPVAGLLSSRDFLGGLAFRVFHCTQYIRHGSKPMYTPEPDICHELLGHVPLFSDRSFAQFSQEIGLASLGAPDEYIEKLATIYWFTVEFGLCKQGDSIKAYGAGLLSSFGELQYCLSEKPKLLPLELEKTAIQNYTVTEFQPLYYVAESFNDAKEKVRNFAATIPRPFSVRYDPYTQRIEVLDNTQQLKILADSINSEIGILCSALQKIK
Experiment: Enzyme kinetic analysis of recombinant PAH activity
Assay type: biochemical
Details: for S0.5, L-Phe / Vmax, L-Phe / h (Hill coefficient), L-Phe / Vmax, BH4, No preincubation / Vmax, BH4, Preincubation / reduction in Vmax (activity dependence on L-Phe) / inhibition of PAH activity / increase of Km for BH4: 100 μM compound; for S0.5, L-Phe / Vmax, L-Phe / h (Hill coefficient), L-Phe: 75 μM BH4, L-Phe 0-1 mM, preincubated; for S0.5, L-Phe / Vmax, L-Phe / h (Hill coefficient), L-Phe / Vmax, BH4, No preincubation / Vmax, BH4, Preincubation: mean ± S.E.; for Vmax, BH4, No preincubation / Vmax, BH4, Preincubation: 1 mM L-Phe, BH4 0-200 μM; for Vmax, BH4, No preincubation: not preincubated; for Vmax, BH4, Preincubation: preincubated with L-Phe; for reduction in Vmax (activity dependence on L-Phe): 75 μM BH4; for inhibition of PAH activity: 100 μM L-Phe, 10 μM BH4, L-Phe preincubation (FIG. 3A); for increase of Km for BH4: preincubation with 1 mM L-Phe; for Ki: using standard equations for competitive inhibition, read-out: Kl vs BH4 (competitive inhibition)
Description: PAH activity was measured at 25° C. for 1 min essentially as described (BjØrgo E, et al., Eur. J. Biochem. 1988; 257(1):1-10). Tetrameric hPAH (1-2 μg) was incubated in 20 mM Hepes 0.2 M NaCl pH 7.0, containing catalase (0.04 mg/ml), 0.1-1 mM L-Phe, DMSO 2.5% and 0-100 μM of each compound. After 4 min incubation at 25° C., ferrous ammonium sulphate (100 μM) was added, and the reaction was triggered after 1 min by adding BH4 (10-200 μM) in the presence of 5 mM DTT. In some experiments, the preincubation step with L-Phe was omitted and L-Phe was added together with BH4 to analyze the L-Phe induced activation of the enzyme. To determine the kinetic parameters for BH4 and L-Phe, BH4 was used at 0-200 μM (at fixed 1 mM L-Phe) and L-Phe at 0-1 mM (BH4 was fixed at 75 μM). L-Tyr formed was quantified by HPLC and fluorimetric detection (DØskeland A P, et al., J. Biol. Chem. 1984; 259:11242-11248). The saturation curves were fitted to hyperbolic (for BH4) or sigmoidal (for L-Phe) kinetic models by using Sigma Plot v.9.0 (SPSS Inc).
PAH enzyme kinetics have been analyzed in the presence of the four hit compounds in order to know if ligand binding interferes with PAH catalytic activity. Activity measurements were performed in the presence of high (100 μM) concentrations of ligands with or without preincubating PAH enzyme with L-Phe prior to activity assays. L-Phe preincubation of human PAH lead to activation of the enzyme and manifestation of positive cooperativity by the substrate, and it is thought to play an important regulatory role on PAH activity in vivo (Pey A L, et al., In: Blau N. ed. Advances in PKU and BH4, 2006). […] It is worth noting that under these conditions, ligand concentration equalled L-Phe concentration (100 μM), and 10-fold exceeded BH4 concentration (10 μM). Except for compound 13, this inhibition was dramatically weakened when the preincubation step with L-Phe (100 μM) was ommited. Moreover, when L-Phe and BH4 are used at saturating concentrations, inhibition was abolished (FIG. 3B), indicating a rather weak and reversible inhibitory effect exerted by these ligands.
Further kinetic analyses were performed to determine if the weak inhibition was due to competition for the substrate and/or cofactor binding sites. Activity dependence on BH4 and L-Phe concentration was measured in the presence of 100 μM compound concentration, and the experimental data fitted to hyperbolic (BH4) or sigmoidal (L-Phe) kinetic models. The fitting parameters obtained from these experiments are compiled in Table 2. […] These values are substantially higher than those obtained for likely physiological inhibitors of PAH, such as 7S-BH4 and BH2 (Kl˜2-5 μM and ˜17 μM, respectively).

Compound | S0.5, L-Phe | Vmax, L-Phe | h (Hill coefficient), L-Phe | Vmax, BH4, No preincubation | Vmax, BH4, Preincubation | reduction in Vmax (activity dependence on L-Phe) | inhibition of PAH activity | increase of Km for BH4 | Ki
Cn1cnc([N+](=O)[O-])c1N1CCN(C(c2ccccc2)c2ccccc2)CC1 [Compound 6, 1-benzhydryl-4-(1-methyl-4-nitro-1H-imidazol-5-yl)piperazine] | 156 ± 10 µM | 3.77 ± 0.13 μmol L-Tyr/min·mg | 1.8 ± 0.1 | 0.81 ± 0.05 μmol L-Tyr/min·mg | 2.96 ± 0.10 μmol L-Tyr/min·mg |  |  |  | 
Nc1c(-c2ccc3ccccc3n2)c2ccc([N+](=O)[O-])cc2c(=O)n1Cc1ccccc1 [Compound 11, 3-amino-2-benzyl-7-nitro-4-(2-quinolyl)-1,2-dihydroisoquinolin-1-one] | 138 ± 8 µM | 3.57 ± 0.11 μmol L-Tyr/min·mg | 1.9 ± 0.2 | 0.86 ± 0.03 μmol L-Tyr/min·mg | 2.87 ± 0.14 μmol L-Tyr/min·mg |  |  |  | 
Cc1onc(-c2ccccc2)c1-c1n[nH]c(N)c1C#N [Compound 5, 5-amino-3-(5-methyl-3-phenyl-4-isoxazolyl)-1H-pyrazole-4-carbonitrile] | 118 ± 5 µM | 3.02 ± 0.08 μmol L-Tyr/min·mg | 2.6 ± 0.3 | 0.80 ± 0.05 μmol L-Tyr/min·mg | 3.52 ± 0.41 μmol L-Tyr/min·mg | about 13% | specially significant | ~20% | ~500 µM
Cc1ccnc(-n2c(=S)[nH]c3sc(C)c(C)c3c2=O)c1 [Compound 13, 5,6-dimethyl-3-(4-methyl-2-pyridinyl)-2-thioxo-2,3 dihydrothieno[2,3-d]pyrimidin-4(1H)-one] | 131 ± 11 µM | 2.43 ± 0.10 μmol L-Tyr/min·mg | 1.6 ± 0.2 | 0.85 ± 0.07 μmol L-Tyr/min·mg | 3.11 ± 0.16 μmol L-Tyr/min·mg | ~30% | specially significant | ~50% | ~200 µM
